This note sets out measurements from ChEMBL document CHEMBL4311942, “Design of Trp-Rich Dodecapeptides with Broad-Spectrum Antimicrobial Potency and Membrane-Disruptive Mechanism” (J Med Chem, 2019).

In series [1] the test system is Staphylococcus aureus. Briefly: Antibacterial activity against Staphylococcus aureus ATCC 29213 incubated for 18 to 24 hrs by broth microdilution method. The format is functional.
The test system of series [2] is Staphylococcus aureus. Briefly: Antibacterial activity against Staphylococcus aureus ATCC 25923 incubated for 18 to 24 hrs by broth microdilution method. The format is functional.
Series [3] deals with Escherichia coli. Briefly: Antibacterial activity against Escherichia coli UB1005 incubated for 18 to 24 hrs by broth microdilution method. The format is functional.
Series [4] can be described thus: Cytotoxicity against mouse RAW264.7 cells assessed as cell survival at <= 32 uM after 24 hrs by MTT assay relative to control. Type of series: cell-based. The settings on record: RAW264.7 cells, up to 32 µM, read-out: Activity.
In series [5] the test system is Escherichia coli. Briefly: Antibacterial activity against Escherichia coli ATCC 25922 incubated for 18 to 24 hrs by broth microdilution method. Type of series: functional.
In series [6] the test system is Salmonella typhimurium. Briefly: Antibacterial activity against Salmonella enterica serovar typhimurium C77-31 incubated for 18 to 24 hrs by broth microdilution method. The format is functional, Salmonella enterica subsp. enterica serovar Typhimurium.
In series [7] the test system is Staphylococcus epidermidis. Briefly: Antibacterial activity against Staphylococcus epidermidis ATCC 12228 incubated for 18 to 24 hrs by broth microdilution method. The format is functional.
Series [8] has as its system Erythrocyte. Briefly: Haemolytic activity in human erythrocytes assessed as lowest concentration causing 5% hemolysis after 1 hr. Type of series: ADME, cell-based.
Series [9] can be described thus: Therapeutic index, ratio of MHC for human RBC to geometric mean of peptide MIC for Escherichia coli ATCC 25922. The format is toxicity. The settings on record: pooled result: one value given for 6 cell lines, strains, targets or settings, read-out: TI.
In series [10] the test system is Acinetobacter baumannii. Briefly: Antibacterial activity against Acinetobacter baumannii AB1901 clinical isolate incubated for 18 to 24 hrs by broth microdilution method. The format is functional.
The test system of series [11] is Escherichia coli. Briefly: Antibacterial activity against Escherichia coli 20411 clinical isolate incubated for 18 to 24 hrs by broth microdilution method. Type of series: functional.
For series [12], the system named is Acinetobacter baumannii. Briefly: Antibacterial activity against Acinetobacter baumannii AB1902 clinical isolate incubated for 18 to 24 hrs by broth microdilution method. Type of series: functional.
A short description of series [13]: Resistance index, ratio of MIC for antibacterial activity against ciprofloxacin-resistant Escherichia coli to MIC for Escherichia coli ATCC 25922 incubated for 18 to 24 hrs by broth microdilution method. Type of series: functional.
For series [14], the system named is Pseudomonas aeruginosa. Briefly: Antibacterial activity against Pseudomonas aeruginosa 25349 clinical isolate incubated for 18 to 24 hrs by broth microdilution method. The format is functional.
Series [15] concerns Staphylococcus aureus. Briefly: Antibacterial activity against Staphylococcus aureus 11011 incubated for 18 to 24 hrs by broth microdilution method. Type of series: functional.
For series [16], the system named is Escherichia coli. Briefly: Antibacterial activity against ciprofloxacin-resistant Escherichia coli ATCC 25922 incubated for 18 to 24 hrs. The format is functional.
The subject of series [17] is Lipopolysaccharide (LPS). Briefly: Displacement of BODIPY-TR-cadaverine from Escherichia coli O111:B4 LPS assessed as increase in fluorescence intensity at 64 uM by spectrofluorophotometric method relative to control.
Where [18] appears, read: Salmonella enterica subsp. enterica serovar Typhimurium.

≈ marks a conversion by molar mass, not a printed value. Where a SMILES comes first, the peptide text is derived from it.

For `CC(C)C[C@H](NC(=O)[C@H](CCCNC(=N)N)NC(=O)[C@H](CCCCN)NC(=O)[C@H](CCCNC(=N)N)NC(=O)[C@@H](NC(=O)[C@H](Cc1c[nH]c2ccccc12)NC(=O)[C@H](CCCCN)NC(=O)[C@H](CCCNC(=N)N)NC(=O)[C@H](CC(C)C)NC(=O)[C@H](Cc1c[nH]c2ccccc12)NC(=O)[C@@H](N)CCCNC(=N)N)[C@@H](C)O)C(=O)N[C@@H](CCCCN)C(N)=O` (H-RWLRKWTRKRLK-NH2), the MIC is 64 µM (≈ 110 µg/mL) in [1]; 32 µM (≈ 55.2 µg/mL) in series [2]; 16 µM (≈ 27.6 µg/mL) in series [3]; 16 µM (≈ 27.6 µg/mL) in series [5]; 64 µM (≈ 110 µg/mL) in series [6]; 16 µM (≈ 27.6 µg/mL) in series [7]. Further, the viability at 24 h in series [4] is at least 70%. In addition, the MHC in [8] is over 128 µM. Besides, in [9], the selectivity ratio stood at 8.98.
As to `CC(C)C[C@H](NC(=O)[C@H](CCCNC(=N)N)NC(=O)[C@H](Cc1c[nH]c2ccccc12)NC(=O)[C@H](CCCNC(=N)N)NC(=O)[C@@H](NC(=O)[C@H](CCCCN)NC(=O)[C@H](Cc1c[nH]c2ccccc12)NC(=O)[C@H](CCCNC(=N)N)NC(=O)[C@H](CC(C)C)NC(=O)[C@H](Cc1c[nH]c2ccccc12)NC(=O)[C@@H](N)CCCNC(=N)N)[C@@H](C)O)C(=O)N[C@@H](CCCCN)C(N)=O` (H-RWLRWKTRWRLK-NH2), the minimal inhibitory concentration (MIC) turned out to be 4 µM (≈ 7.14 µg/mL) in [1]; 16 µM (≈ 28.5 µg/mL) in series [2]; 4 µM (≈ 7.14 µg/mL) in [3]; 2 µM (≈ 3.57 µg/mL) in [5]; 8 µM (≈ 14.3 µg/mL) in series [6]; 16 µM (≈ 28.5 µg/mL) in [7]. Besides, in [4], the viability at 24 h was at least 70%. In addition, the MHC in series [8] was over 128 µM. In series [9], the selectivity ratio turned out to be 40.3.
Regarding `CC(C)C[C@H](NC(=O)[C@H](CCCNC(=N)N)NC(=O)[C@@H](NC(=O)[C@H](CCCNC(=N)N)NC(=O)[C@@H](NC(=O)[C@H](CCCCN)NC(=O)[C@@H](NC(=O)[C@H](CCCNC(=N)N)NC(=O)[C@H](CC(C)C)NC(=O)[C@H](CCCNC(=N)N)NC(=O)[C@@H](N)C(C)C)C(C)C)[C@@H](C)O)C(C)C)C(=O)N[C@@H](CCCCN)C(N)=O` (H-VRLRVKTRVRLK-NH2), the MIC in [1] is 16 µM (≈ 24.4 µg/mL); in [2] it was 64 µM (≈ 97.5 µg/mL); in series [3], 4 µM (≈ 6.09 µg/mL); in series [5], 4 µM (≈ 6.09 µg/mL); in series [6] it was 16 µM (≈ 24.4 µg/mL); in [7], 32 µM (≈ 48.7 µg/mL). Also, the viability at 24 h in [4] was at least 70%. Besides, the MHC in series [8] was over 128 µM. In addition, the selectivity ratio in [9] stood at 18.
Turning to `CC(C)(O/N=C(\C(=O)N[C@@H]1C(=O)N2C(C(=O)[O-])=C(C[n+]3ccccc3)CS[C@H]12)c1csc(N)n1)C(=O)O` [CEFTAZIDIME], the minimal inhibitory concentration (MIC) in series [1] was 16 µM (≈ 8.75 µg/mL); in series [2], 32 µM (≈ 17.5 µg/mL); in series [3], 0.25 µM (≈ 0.137 µg/mL); in series [10] it was over 128 µM; in [11], 0.25 µM (≈ 0.137 µg/mL); in series [5] it was 0.5 µM (≈ 0.273 µg/mL). Besides, the MIC in series [12] was over 128 µM; in series [6] it was 0.5 µM (≈ 0.273 µg/mL); in series [7] it was 16 µM (≈ 8.75 µg/mL); in series [14], 32 µM (≈ 17.5 µg/mL); in [15], 16 µM (≈ 8.75 µg/mL); in series [16], 16 µM (≈ 8.75 µg/mL). Further, the Ratio in series [13] came to 32.
As for `O=C(O)c1cn(C2CC2)c2cc(N3CCNCC3)c(F)cc2c1=O` [CIPROFLOXACIN], the minimal inhibitory concentration (MIC) in series [1] came out at 0.5 µM (≈ 0.166 µg/mL); in [2] it was 0.5 µM (≈ 0.166 µg/mL); in series [3], 2 µM (≈ 0.663 µg/mL); in series [5], 2 µM (≈ 0.663 µg/mL); in series [6] it was 4 µM (≈ 1.33 µg/mL); in series [7], 0.5 µM (≈ 0.166 µg/mL). The MIC in [15] stood at 0.5 µM (≈ 0.166 µg/mL); in [16] it was 256 µM (≈ 84.8 µg/mL). Moreover, the Activity in series [17] came out at 1.6%.
Take `CN(C)c1ccc(O)c2c1C[C@H]1C[C@H]3[C@H](N(C)C)C(O)=C(C(N)=O)C(=O)[C@@]3(O)C(O)=C1C2=O` [MINOCYCLINE]: the MIC was determined as 0.25 µM (≈ 0.114 µg/mL) in series [1]; 0.25 µM (≈ 0.114 µg/mL) in series [2]; 4 µM (≈ 1.83 µg/mL) in series [3]; 0.25 µM (≈ 0.114 µg/mL) in series [10]; 2 µM (≈ 0.915 µg/mL) in series [11]; 1 µM (≈ 0.457 µg/mL) in series [5]. The MIC was found to be 0.25 µM (≈ 0.114 µg/mL) in series [12]; 8 µM (≈ 3.66 µg/mL) in [6]; 0.25 µM (≈ 0.114 µg/mL) in series [7]; 8 µM (≈ 3.66 µg/mL) in series [14]; 0.25 µM (≈ 0.114 µg/mL) in series [15]; 64 µM (≈ 29.3 µg/mL) in series [16]. Besides, in series [13], the Ratio was 64.
For `CCn1cc(C(=O)O)c(=O)c2cc(F)c(N3CCNCC3)cc21` [NORFLOXACIN], the MIC in series [1] was 1 µM (≈ 0.319 µg/mL); in series [2], 2 µM (≈ 0.639 µg/mL); in [3] it was 4 µM (≈ 1.28 µg/mL); in series [10], over 128 µM; in series [11], 0.0625 µM (≈ 0.02 µg/mL); in series [5], 0.125 µM (≈ 0.0399 µg/mL). The MIC in [12] was over 128 µM; in series [6] it was 0.25 µM (≈ 0.0798 µg/mL); in series [7], 1 µM (≈ 0.319 µg/mL); in series [14] it was 2 µM (≈ 0.639 µg/mL); in [15], 2 µM (≈ 0.639 µg/mL); in [16] it was 1 µM (≈ 0.319 µg/mL).
For the compound `CC1COc2c(N3CCN(C)CC3)c(F)cc3c(=O)c(C(=O)O)cn1c23` (stereo not given) [OFLOXACIN], the MIC in series [1] came to 0.5 µM (≈ 0.181 µg/mL); in series [2], 1 µM (≈ 0.361 µg/mL); in series [3] it was 0.5 µM (≈ 0.181 µg/mL); in series [10], 32 µM (≈ 11.6 µg/mL); in series [11], 0.125 µM (≈ 0.0452 µg/mL); in series [5], 0.125 µM (≈ 0.0452 µg/mL). The MIC came to 32 µM (≈ 11.6 µg/mL) in series [12]; 0.25 µM (≈ 0.0903 µg/mL) in series [6]; 0.5 µM (≈ 0.181 µg/mL) in [7]; 4 µM (≈ 1.45 µg/mL) in series [14]; 1 µM (≈ 0.361 µg/mL) in series [15]; 0.5 µM (≈ 0.181 µg/mL) in series [16]. In addition, in series [13], the Ratio is given as 4.
For `CO[C@H]1/C=C/O[C@@]2(C)Oc3c(C)c(O)c4c(O)c(c(/C=N/N5CCN(C)CC5)c(O)c4c3C2=O)NC(=O)/C(C)=C\C=C\[C@H](C)[C@H](O)[C@@H](C)[C@@H](O)[C@@H](C)[C@H](OC(C)=O)[C@@H]1C` [RIFAMPIN], the MIC in series [1] came to 0.25 µM (≈ 0.206 µg/mL); in series [2] it was 0.25 µM (≈ 0.206 µg/mL); in [3], 8 µM (≈ 6.58 µg/mL); in [10], 1 µM (≈ 0.823 µg/mL); in series [11], 4 µM (≈ 3.29 µg/mL); in series [5] it was 4 µM (≈ 3.29 µg/mL). In addition, the MIC was determined as 1 µM (≈ 0.823 µg/mL) in series [12]; 4 µM (≈ 3.29 µg/mL) in series [6]; 0.25 µM (≈ 0.206 µg/mL) in series [7]; 16 µM (≈ 13.2 µg/mL) in series [14]; 8 µM (≈ 6.58 µg/mL) in series [16]. Moreover, the Ratio in series [13] is on record as 2.
For the compound COLISTIN, the MIC is 128 µM in [1]; 128 µM in series [2]; 0.5 µM in [3]; 1 µM in series [10]; 0.5 µM in series [11]; 0.5 µM in series [5]. For the same compound, the MIC in [12] was 0.5 µM; in series [6] (setting [18]) it was 0.5 µM; in series [7] it was 64 µM; in series [14] it was 0.5 µM; in series [15], 32 µM; in [16], 0.5 µM. Also, the Ratio in series [13] worked out at 1.
Turning to GENTAMICIN, the minimal inhibitory concentration (MIC) in [1] was 0.5 µM; in series [2] it was 0.25 µM; in series [3], 4 µM; in series [10], over 128 µM; in [11], 1 µM; in series [5] it was 4 µM. The MIC in series [12] was over 128 µM; in [6] (setting [18]) it was 8 µM; in [7], 0.5 µM; in series [14], 2 µM; in series [15], 1 µM; in series [16], 4 µM. Moreover, the Ratio in series [13] was 1.
